Patent US20030166138A1, “Cyclic peptides and analogs useful to treat allergies” (priority 2002, published 2003)
“Also recorded” adds a separate entry of the source.

Legend:
germline ε promoter = assay: GFP reporter assay of IL-4 induced ε promoter-driven transcription in naive A5T4 cells (phenotype transfer); format: cell-based; details: for activity in blocking epsilon promoter transcription (GFP reporter) when presented in the mutant intein context: mutant intein construct; for activity in blocking epsilon promoter transcription (GFP reporter) when presented in the mutant intein context / Mutant Reporter Ratio (± std) / Wild-Type Reporter Ratio (± std): naive A5T4 cells; for Mutant Reporter Ratio (± std): mutant intein construct (non-cyclic, splicing-deficient), IL-4 stimulated, GFP fluorescence; for Wild-Type Reporter Ratio (± std): wild-type intein construct (cyclic peptide), IL-4 30 U/ml, GFP fluorescence BFP−/BFP+, average of 3 values
Text: To establish the A5T4 reporter cell line, BJAB cells were infected with a retroviral vector containing an IL-4 responsive 600 bp fragment of the epsilon promoter (Pε) followed by a fusion nucleic acid encoding HBEGF-2a-GFP and a polyadenylation sequence cloned in the reverse orientation into pCGSin (Lorens et al., 2000, Mol. Ther. 1:438-447). Infected cells were induced with IL-4 and single cell sorted by FACS for GFP reporter expression. One of the cell clones identified with the desired profile was designated A5. This cell line was infected with the CtTAIH retroviral vector expressing tTA-VP16 ires hygromycin phosphotranferase gene (Lorens et al., 2000, Virology 272:7) selected with hygromycin and single cell cloned. The clone selected for the screening cell line was characterized for tetracycline regulation and was designated A5T4.
Referring to FIG. 9 or 10, after single cell clones had expanded, cells were replica-plated and grown in the presence or absence of 100 ng/ml Dox for 4 days. Both plates were then stimulated with IL-4 (30 U/ml) and, after 3 more days, both populations were analyzed by FACS to measure GFP fluorescence. FACS data were converted to reporter ratios, which are defined as the ratio of the geometric mean of GFP fluorescence of the +IL-4/+Dox (peptide off) population over the geometric mean of the +IL-4/−Dox (peptide on) population. Cells expressing a cyclic peptide that inhibits germline ε transcription have reporter ratios of >1.1, typically >1.12, >1.13, >1.14 or >1.15.
Phoenix packaging cells were transfected with the retroviral vector illustrated in FIG. 6A encoding a particular cyclic peptide as described in WO 97/27213. Naïve A5T4 cells were infected with the resultant retrovirons and grown for three days. The infected cells (BFP^+) were stimulated with IL-4 (30 U/ml) and, after three days, were assessed by FACS for BFP and GFP fluorescence.
The GFP fluorescence data corresponding to the BFP^−/BFP^+in the presence of IL-4 stimulation were obtained for 34 clones and reporter ratios were calculated therefrom. […] Three others had reporter wt ratios in the range of about 1.12-1.2. The names of the clones, sequences of the regions of the polynucleotides encoding the cyclic peptides SEQ ID NOS:1-23, the sequences of the expressed cyclic peptides SEQ ID NOS:1-23 and their respective reporter ratios are provided in TABLE 1, below (“wild-type” reporter ratios; each reporter ratio is the average of 3 values):
As discussed previously, intein splicing is dependent upon the presence of nucleophilic residues at the splice junctions (underlined in FIG. 6A; see Perler & Adam, 2000, Curr. Opin. Biotechnol. 11:377-383). To confirm that the inhibitory activity of the clones of TABLE 1 was due to the expression of a cyclic peptide, mutants were created that lacked the ability to catalyze the splicing reaction due to the replacement of these three critical underlined nucleophilic residues with alanines. These mutants (illustrated in FIG. 6B) were then used to infect naive A5T4 cells as described above.

[1] = tested on: endogenous germline ε promoter; assay: Quantitative real time PCR (Taqman) of endogenous germline ε transcript in A5T4 cells; format: cell-based; details: mutant intein context, +IL-4
Method: The ability of cyclic peptides SEQ ID NOS:1-20 to inhibit transcription of an endogenous germline ε promoter was confirmed using quantitative real time PCR (Taqman®; Applied Biosystems, Foster City, Calif.). Briefly, A5T4 cells were infected with retrovirus capable of expressing the cyclic peptides (prepared as described above). Cells were first sorted for BFP to ensure that they were retrovirally infected. Several different assay conditions were tested: −Dox/-IL-4, −Dox/+IL-4, +Dox/-IL-4, +Dox/+IL-4. All experiments were conducted in triplicate. BFP positive sorted cells were thereafter maintained in Dox (peptide off). To obtain the −Dox condition, cells were washed 2× with media and maintained in Dox-free culture for 72 hours. Cells in +/−Dox were split to 50,000 cells per ml. The following day, IL-4 was added (30 units/ml) and cells were incubated for 3 days before FACS analysis and pelleting for RNA extraction. The primers and probe used were as follows (the probe was labeled at the 5′-end with Fam and at the 3′-end with Tamra):
The probe spans a splice junction and thus will not detect contaminating DNA in the reaction assay. […] The epsilon inhibition ratio R was calculated by dividing the transcript expression values in the presence of Dox and IL-4 (+IL-4/+Dox) by values in the absence of Dox and presence of IL-4(+IL-4/−Dox). […]

cyclo(S D H S Q)
activity in blocking epsilon promoter transcription (GFP reporter) when presented in the mutant intein context (germline ε promoter): inactive | Mutant Reporter Ratio (± std) (germline ε promoter): 1.06 ± 0.06 | Wild-Type Reporter Ratio (± std) (germline ε promoter): 1.20 ± 0.04

cyclo(S W A Q A)
activity in blocking epsilon promoter transcription (GFP reporter) when presented in the mutant intein context (germline ε promoter): inactive | Mutant Reporter Ratio (± std) (germline ε promoter): 1.10 ± 0.04 | Wild-Type Reporter Ratio (± std) (germline ε promoter): 1.25 ± 0.02

cyclo(S E M F S I Q)
activity in blocking epsilon promoter transcription (GFP reporter) when presented in the mutant intein context (germline ε promoter): inactive | Mutant Reporter Ratio (± std) (germline ε promoter): 1.13 ± 0.03 | Wild-Type Reporter Ratio (± std) (germline ε promoter): 1.28 ± 0.03

cyclo(S S C M R)
Mutant Reporter Ratio (± std) (germline ε promoter): 1.20 ± 0.12 | Wild-Type Reporter Ratio (± std) (germline ε promoter): 1.12 ± 0.03

cyclo(S N F T F)
activity in blocking epsilon promoter transcription (GFP reporter) when presented in the mutant intein context (germline ε promoter): inactive; also recorded: did not strongly block | Mutant Reporter Ratio (± std) (germline ε promoter): 1.08 ± 0.05 | Wild-Type Reporter Ratio (± std) (germline ε promoter): 1.28 ± 0.05 | block of endogenous ε-transcription [1]: clearly blocked

cyclo(S N I P Q)
activity in blocking epsilon promoter transcription (GFP reporter) when presented in the mutant intein context (germline ε promoter): inactive | Mutant Reporter Ratio (± std) (germline ε promoter): 1.10 ± 0.02 | Wild-Type Reporter Ratio (± std) (germline ε promoter): 1.20 ± 0.01

cyclo(S S L R W)
activity in blocking epsilon promoter transcription (GFP reporter) when presented in the mutant intein context (germline ε promoter): decrease in activity | Mutant Reporter Ratio (± std) (germline ε promoter): 1.21 ± 0.02 | Wild-Type Reporter Ratio (± std) (germline ε promoter): 1.31 ± 0.05

cyclo(S R N W S H)
activity in blocking epsilon promoter transcription (GFP reporter) when presented in the mutant intein context (germline ε promoter): inactive | Mutant Reporter Ratio (± std) (germline ε promoter): 1.06 ± 0.04 | Wild-Type Reporter Ratio (± std) (germline ε promoter): 1.18 ± 0.04

cyclo(S Y F T S C W)
activity in blocking epsilon promoter transcription (GFP reporter) when presented in the mutant intein context (germline ε promoter): decrease in activity | Mutant Reporter Ratio (± std) (germline ε promoter): 1.27 ± 0.01 | Wild-Type Reporter Ratio (± std) (germline ε promoter): 1.36 ± 0.07

cyclo(S F V T W)
activity in blocking epsilon promoter transcription (GFP reporter) when presented in the mutant intein context (germline ε promoter): decrease in activity | Mutant Reporter Ratio (± std) (germline ε promoter): 1.25 ± 0.06 | Wild-Type Reporter Ratio (± std) (germline ε promoter): 1.46 ± 0.12

cyclo(S V V T R)
activity in blocking epsilon promoter transcription (GFP reporter) when presented in the mutant intein context (germline ε promoter): remained active | Mutant Reporter Ratio (± std) (germline ε promoter): 1.26 ± 0.03 | Wild-Type Reporter Ratio (± std) (germline ε promoter): 1.19 ± 0.03

cyclo(S L N R I)
activity in blocking epsilon promoter transcription (GFP reporter) when presented in the mutant intein context (germline ε promoter): remained active | Mutant Reporter Ratio (± std) (germline ε promoter): 1.40 ± 0.08 | Wild-Type Reporter Ratio (± std) (germline ε promoter): 1.45 ± 0.07

cyclo(S R V E I)
activity in blocking epsilon promoter transcription (GFP reporter) when presented in the mutant intein context (germline ε promoter): No significant difference; also recorded: inactive | Mutant Reporter Ratio (± std) (germline ε promoter): 1.06 ± 0.06 | Wild-Type Reporter Ratio (± std) (germline ε promoter): 1.53 ± 0.16 | inhibition of ε-promoter induction (germline ε promoter; net increase of geometric mean GFP fluorescence following IL-4 stimulation, BFP+ vs uninfected population, wild-type intein): 51%

cyclo(S R R H C C H)
Mutant Reporter Ratio (± std) (germline ε promoter): 1.02 ± 0.03 | Wild-Type Reporter Ratio (± std) (germline ε promoter): 1.09 ± 0.03

cyclo(S T G P R)
activity in blocking epsilon promoter transcription (GFP reporter) when presented in the mutant intein context (germline ε promoter): remained active | Mutant Reporter Ratio (± std) (germline ε promoter): 1.18 ± 0.04 | Wild-Type Reporter Ratio (± std) (germline ε promoter): 1.19 ± 0.03

cyclo(S A R F V)
activity in blocking epsilon promoter transcription (GFP reporter) when presented in the mutant intein context (germline ε promoter): decrease in activity | Mutant Reporter Ratio (± std) (germline ε promoter): 1.43 ± 0.03 | Wild-Type Reporter Ratio (± std) (germline ε promoter): 1.52 ± 0.04

cyclo(S Y S Q)
activity in blocking epsilon promoter transcription (GFP reporter) when presented in the mutant intein context (germline ε promoter): inactive | Mutant Reporter Ratio (± std) (germline ε promoter): 1.07 ± 0.01 | Wild-Type Reporter Ratio (± std) (germline ε promoter): 1.18 ± 0.01

cyclo(S P W K L V G)
activity in blocking epsilon promoter transcription (GFP reporter) when presented in the mutant intein context (germline ε promoter): inactive | Mutant Reporter Ratio (± std) (germline ε promoter): 1.02 ± 0.06 | Wild-Type Reporter Ratio (± std) (germline ε promoter): 1.27 ± 0.03

cyclo(S V I E Q)
activity in blocking epsilon promoter transcription (GFP reporter) when presented in the mutant intein context (germline ε promoter): decrease in activity | Mutant Reporter Ratio (± std) (germline ε promoter): 1.14 ± 0.04 | Wild-Type Reporter Ratio (± std) (germline ε promoter): 1.22 ± 0.04

cyclo(S G A D S)
activity in blocking epsilon promoter transcription (GFP reporter) when presented in the mutant intein context (germline ε promoter): inactive | Mutant Reporter Ratio (± std) (germline ε promoter): 1.08 ± 0.05 | Wild-Type Reporter Ratio (± std) (germline ε promoter): 1.23 ± 0.02

cyclo(S S F T)
Mutant Reporter Ratio (± std) (germline ε promoter): 1.05 ± 0.04 | Wild-Type Reporter Ratio (± std) (germline ε promoter): 1.10 ± 0.03

cyclo(S F G R S)
activity in blocking epsilon promoter transcription (GFP reporter) when presented in the mutant intein context (germline ε promoter): inactive | Mutant Reporter Ratio (± std) (germline ε promoter): 1.08 ± 0.06 | Wild-Type Reporter Ratio (± std) (germline ε promoter): 1.20 ± 0.02

cyclo(S R R D R I)
activity in blocking epsilon promoter transcription (GFP reporter) when presented in the mutant intein context (germline ε promoter): inactive | Mutant Reporter Ratio (± std) (germline ε promoter): 1.08 ± 0.04 | Wild-Type Reporter Ratio (± std) (germline ε promoter): 1.31 ± 0.03
